Read-outs that look alike come from different tables or passages of the source.
Columns and labels:
[1] = treatment of weakness in metabolic activity with pantothenic acid-CoA; format: in vivo, human; conditions: intake in a large amount
Text: The invention is based of the surprising finding of Mr.
Muscle weakness and pain, weakness, respiratory weakness, mental exhaustion, and gastric problems have mainly been treated with pantothenic acid-CoA,-buk, vitamins and amino acids.
After improvement and discontinuation of the treatment the symptoms returned after a short interval. Ultimately, the problems could be reduced and neutralised through re-treatment. Only with the normalization of the function of the digestive tract, the absorption of pantothenic acid-CoA from food in the stomach could be reproduced, and the treatment was dispensable.
Disturbed gastric functions and/or depletion of mitochondrial reserves in Myasthenia, autism, chronic fatigue syndrome appears in the fading of the yellowing of the urine. […] The current optimum, the proof of the success of the pantothenic acid-CoA treatment is reached when harmless acetylcholine surplus reactions responses in the bladder, stomach or intestines occur.

[2] = cited from earlier work; for side effects: Alzheimer's disease patients; for condition of Alzheimer's disease patients: after administration
ACH Esterase = target: T1, ACH Esterase (Homo sapiens, UniProt P22303); conditions: 30 mg PB, soldiers, cited from earlier work
T1 construct: endogenous in cells
T1 sequence (P22303 32-614): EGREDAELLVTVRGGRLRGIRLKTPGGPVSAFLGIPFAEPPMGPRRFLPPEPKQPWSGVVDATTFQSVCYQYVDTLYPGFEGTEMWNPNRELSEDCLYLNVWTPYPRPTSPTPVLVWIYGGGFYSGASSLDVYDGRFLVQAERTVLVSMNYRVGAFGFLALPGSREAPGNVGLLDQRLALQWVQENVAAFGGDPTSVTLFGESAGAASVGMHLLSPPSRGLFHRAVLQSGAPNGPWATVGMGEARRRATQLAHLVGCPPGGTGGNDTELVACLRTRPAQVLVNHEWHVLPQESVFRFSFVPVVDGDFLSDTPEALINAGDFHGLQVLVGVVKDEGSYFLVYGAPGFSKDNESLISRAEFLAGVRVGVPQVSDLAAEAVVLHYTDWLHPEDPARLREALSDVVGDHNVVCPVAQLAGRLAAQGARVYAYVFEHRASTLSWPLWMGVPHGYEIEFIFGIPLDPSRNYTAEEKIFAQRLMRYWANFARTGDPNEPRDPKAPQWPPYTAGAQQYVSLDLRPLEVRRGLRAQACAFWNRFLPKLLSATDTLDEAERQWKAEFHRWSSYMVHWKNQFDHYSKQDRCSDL

[3] = test system: smooth muscles of lachrymal gland, bladder, stomach, intestine; assay: response experiment to sublingual/buccal Panthenol under Acetylcholinersterase-inhibition; format: in vivo, human; conditions: 2 g Panthenol Tbl. sublingual/buccal
Procedure: Immediately afterwards, response experiment to sublingual/buccal applied 2 g-Panthenol Tbl. was executed. […] After its decay and continuation of the breakfast with bread the same reactions in bladder, womb and bowel 10 minutes later repeated with time shortened duration.
Acetylcholine, the natural excitation transmitter from the nerve to the muscle effects striped muscles in concentrations of 10^−6 g/l, smooth muscles already in concentrations of 10^−16 g/l. (4) These “adverse” reactions are contractions of smooth muscles of lachrymal gland, bladder, stomach, intestine, caused by there suddenly synthesized acetylcholine, which exceeds the Response threshold that is 10^−16 grams per liter of acetylcholine in smooth muscles: • a) within 10 minutes of ingestion into the stomach and after the end of reaction; • b) within 10 minutes of sublingual/buccal absorption of 2000 mg Tbl Panthenol, while Acetylcholinersterase-inhibition amongst 140 mg Neostgminbromid is existing. […] (13)

Molecule	effect on symptoms caused by weakness in metabolic activity [1]	side effects [2]	condition of Alzheimer's disease patients [2]	also measured
CC(C)(CO)[C@@H](O)C(=O)NCCC(=O)O [pantothenic acid, Pantothenic acid]	beneficial effect			
CCN(C)C(=O)Oc1cccc([C@H](C)N(C)C)c1 [Rivastigmin]		nausea, vomiting, diarrhea and cramps	improvement of their condition	
Nc1c2c(nc3ccccc13)CCCC2 [Tacrine]		nausea, vomiting, diarrhea and cramps	improvement of their condition	
CN(C)C(=O)Oc1ccc[n+](C)c1 [Pyridostigminbromid]				adverse cholinergic reactions (ACH Esterase): nausea, vomiting, stomach cramps, diarrhea, urination, increased salivation, sweating and muscle spasm; adverse cholinergic reactions (ACH Esterase; listed as pyridostigmine bromide): nausea, vomiting, abdominal Cramps, diarrhea, increased salivation, sweating, muscle Cramps
CC(C)(CO)[C@@H](O)C(=O)NCCCO [Panthenol]				reaction to first application of Panthenol ([3]; first application, under 140 mg Neostigminbromid): the same adverse reaction started with a similar duration; reaction to anew application of Panthenol ([3]; second application after continued breakfast): the same adverse reaction started, but delayed and lasted for less
pantothenic acid-CoA	beneficial effect			
